Experimental data: patent US20240358847A1, “TROP2 BINDERS AND CONJUGATES THEREOF” (MERCK SHARP & DOHME LLC, priority 2023, published 2024)

Key:
MDA-MB-231-KWL cells = assay: On-Cell ELISA binding, MDA-MB-231-KWL cells (TROP2 low); format: cell-based; set-up: AUC (MDA-MB-231-KWL): unit not given beside the values; settings: for EC50: read-out: MDA-MB-231-KWL EC50, On-Cell ELISA, TROP2 low cells; for AUC (MDA-MB-231-KWL): area under On-Cell ELISA binding curve
Description: (§1) Cell lines expressing TROP2.
(§2) Cells were plated in duplicate onto 96-well plates, and primary antibody was diluted in cell culture medium with a starting concentration of 30 μg/mL (200 nM) with a dilution factor of 1:5. After 3× wash, secondary antibody was added for 1 hour at 1 ug/ml, washed three times and absorbance was measured at 450 nm. Data was plotted and analyzed. EC50 ([…]) was measured along with area under the curve (AUC) for each cell line.

BxPC-3 cells = assay: On-Cell ELISA binding, BxPC3 cells (TROP2 high); format: cell-based, human; set-up: AUC (BxPC-3): unit not given beside the values; settings: for EC50: On-Cell ELISA, TROP2 high cells; for ΔAUC: AUC (BxPC-3) minus AUC (MDA-MB-231-KWL); for AUC (BxPC-3): area under On-Cell ELISA binding curve; for ΔAUC/AUC (BxPC-3): differential BxPC3 vs MDA-MB-231-KWL
Description: as §1, §2

EC50 (MDA-MB-231-KWL cells) [nM]	EC50 (BxPC-3 cells) [nM]	Substance	also measured
8.46	1.68	mAb_Lm_Q89V_HC: Sacituzumab LC Q89V mutein, Sacituzumab HC	–
0.374	0.233	mAb_Lm_T94F_HC: Sacituzumab LC T94F mutein, Sacituzumab HC	–
–	1.68	mAb_LC_Hm_W106A: Sacituzumab HC W106A mutein, Sacituzumab LC	–
0.546	0.357	mAb_Lm_Y53R_HC: Sacituzumab LC Y53R mutein, Sacituzumab HC	–
–	6.95	mAb_Lm_Y92E_HC: Sacituzumab LC Y92E mutein, Sacituzumab HC	–
0.304	0.28	mAb_Lm_Y53S_HC: Sacituzumab LC Y53S mutein, Sacituzumab HC	–
–	0.697	mAb_Lm_S30R_HC: Sacituzumab LC S30R mutein, Sacituzumab HC	–
–	0.312	mAb_LC_Hm_Y105S: Sacituzumab HC Y105S mutein, Sacituzumab LC	–
0.365	0.316	mAb_LC_Hm_F108Q: Sacituzumab HC F108Q mutein, Sacituzumab LC	–
–	0.285	mAb_Lm_V29R_HC: Sacituzumab LC V29R mutein, Sacituzumab HC	–
0.768	0.217	mAb_LC_Hm_G33I: Sacituzumab HC G33I mutein, Sacituzumab LC	–
0.871	0.336	mAb_LC_Hm_F101T: Sacituzumab HC F101T mutein, Sacituzumab LC	–
–	0.214	mAb_LC_Hm_S104D: Sacituzumab HC S104D mutein, Sacituzumab LC	–
–	23.8	mAb_Lm_S50L_HC: Sacituzumab LC S50L mutein, Sacituzumab HC	–
1.16	0.369	mAb_LC_Hm_N31P: Sacituzumab HC N31P mutein, Sacituzumab LC	–
0.843	0.225	mAb_Lm_Y53N_HC: Sacituzumab LC Y53N mutein, Sacituzumab HC	–
0.629	0.218	mAb_Lm_Y53P_HC: Sacituzumab LC Y53P mutein, Sacituzumab HC	–
1.96	0.899	mAb_Lm_H91K_HC: Sacituzumab LC H91K mutein, Sacituzumab HC	–
–	2.24	mAb_LC_Hm_G33S: Sacituzumab HC G33S mutein, Sacituzumab LC	–

EC50 (MDA-MB-231-KWL cells) [nM]	EC50 (BxPC-3 cells) [nM]	Substance	also measured
–	18.4	mAb_Lm_A32Q_HC: Sacituzumab LC A32Q mutein, Sacituzumab HC	–
–	0.326	mAb_LC_Hm_W106L: Sacituzumab HC W106L mutein, Sacituzumab LC	–
–	1.16	mAb_LC_Hm_W106H: Sacituzumab HC W106H mutein, Sacituzumab LC	AUC (MDA-MB-231-KWL) (MDA-MB-231-KWL cells): 22.73; ΔAUC (BxPC-3 cells): 192.47; AUC (BxPC-3) (BxPC-3 cells): 215.2; ΔAUC/AUC (BxPC-3) (BxPC-3 cells): 0.605
–	0.922	mAb_Lm_A32P_HC: Sacituzumab LC A32P mutein, Sacituzumab HC	–
–	0.839	mAb_Lm_Y92N_HC: Sacituzumab LC Y92N mutein, Sacituzumab HC	–
0.221	0.182	mAb_Lm_I93G_HC: Sacituzumab LC I93G mutein, Sacituzumab HC	–
0.448	0.32	mAb_LC_Hm_F29G: Sacituzumab HC F29G mutein, Sacituzumab LC	–
–	9.2	mAb_Lm_Y92A_HC: Sacituzumab LC Y92A mutein, Sacituzumab HC	–
1.58	0.416	mAb_LC_Hm_Y32E: Sacituzumab HC Y32E mutein, Sacituzumab LC	–
0.651	0.321	mAb_LC_Hm_F108S: Sacituzumab HC F108S mutein, Sacituzumab LC	–
–	–	mAb_LC_Hm_S103T: Sacituzumab HC S103T mutein, Sacituzumab LC	AUC (MDA-MB-231-KWL) (MDA-MB-231-KWL cells): 33.66; ΔAUC (BxPC-3 cells): 171.04; AUC (BxPC-3) (BxPC-3 cells): 204.7; ΔAUC/AUC (BxPC-3) (BxPC-3 cells): 0.538
0.343	0.225	mAb_Lm_Y53V_HC: Sacituzumab LC Y53V mutein, Sacituzumab HC	–
1.2	0.681	mAb_LC_Hm_F108T: Sacituzumab HC F108T mutein, Sacituzumab LC	–
2.69	0.482	mAb_LC_Hm_F101E: Sacituzumab HC F101E mutein, Sacituzumab LC	–
0.136	0.159	mAb_Lm_D28H_HC: Sacituzumab LC D28H mutein, Sacituzumab HC	–
4.89	0.238	mAb_Lm_Y53D_HC: Sacituzumab LC Y53D mutein, Sacituzumab HC; HC SEQ ID NO: 11, LC SEQ ID NO: 13	–
–	3.56	mAb_Lm_H91Y_HC: Sacituzumab LC H91Y mutein, Sacituzumab HC	–
1.88	0.715	mAb_LC_Hm_Y107N: Sacituzumab HC Y107N mutein, Sacituzumab LC	–
0.568	0.222	mAb_Lm_S50T_HC: Sacituzumab LC S50T mutein, Sacituzumab HC	–
